Source: patent publication US20090221538A1, “METHODS OF TREATING MULTIPLE SCLEROSIS BY ADMINISTERING PULSE DOSE CALCITRIOL” (priority 2008, published 2009)
Where “and” joins values, the source holds several entries; their conditions need not be identical. Equal entries are not always repeated. Marks after values point to notes of the source that are not given here.

Test system: B10.PL mice with acute EAE
Test: Treatment of MBP-induced acute EAE in B10.PL mice, daily clinical EAE disability score
Assay type: in vivo
Design: key to cumulative disability (sum of daily disability scores; mean) / Cumulative disability / EAE severity (initial) / Remission (minimum) / EAE severity (final) / EAE severity (decrease): EAE score 0 = normal to 5 = moribund; cumulative = sum of daily scores
Conditions: for EAE severity (initial): score at randomization
Method: Breeding pairs of B10.PL-H2^uH2-T18^a/(73NS)/SnJ (hereafter B10.PL) mice were purchased from the Jackson Laboratory (Bar Harbor, Me.). The experimental B10.PL mice were either bred in the pathogen-free mouse colony at the University of Wisconsin Department of Biochemistry, or purchased from the Jackson Laboratory. Mice were housed at 23° C. with 40-60% humidity, 12 hr light-dark cycles, and ad libidum access to water. Unless stated otherwise, the mice were fed Lab Diet #5008 (PMI Nutrition International, Inc., Brentwood, Mo.) containing 0.33 μg/d vitamin D3 and 1% calcium. Experiments used male and female mice aged 6-8 wks (age- and sex-matched within experiments). The University of Wisconsin College of Agricultural and Life Sciences Institutional Animal Care and Use Committee approved all of the experimental protocols.
Bovine myelin basic protein (Sigma Chemical Co., St. Louis, Mo.) was dissolved at 2 mg/mL in 0.1 N acetic acid and emulsified with Complete Freund's adjuvant containing heat-killed Mycobacterium tuberculosis H37 Ra solution (Difco). Each mouse was injected subcutaneously with 0.1 mL emulsion in each hind flank (400 micrograms of MBP per mouse). On the day of immunization and again 2 days later, 200 nanograms of pertussis toxin was injected into the peritoneum. Thereafter, clinical EAE signs were scored daily as follows: 0, normal; 1, limp tail; 1.5, partial paralysis of one hind limb; 2, partial paralysis of both hind limbs; 2.5 partial paralysis of one hind limb and complete paralysis of one hind limb; 3, paralysis of both hind limbs; 4, hind and fore limb paralysis; 5, moribund.
The vitamin D3 and 1,25-(OH)2D3 were obtained from Sigma Chemical Co. The vitamin D3 was dissolved in safflower oil and stored in the dark at 5° C. The 1,25-(OH)2D3 was dissolved in 100% ethanol (1 mg/mL) and stored in the dark under nitrogen gas at −20° C. The concentration of 1,25-(OH)2D3 was determined by spectral analysis. Animals with stage 2.3±0.3 were randomized into treatment groups. The details of the treatments are given in the figure legends and table footnotes. The synthetic diet used in some experiments was formulated to contain all essential nutrients except vitamin D3 and was prepared exactly as we described (Spach and Hayes, 2005, J. Immunol. 175:4119-4126). For experiments using supplementary vitamin D3, the placebo group was fed the synthetic diet ad libidum without added vitamin D3, whereas the vitamin D3-supplemented group was fed the synthetic diet ad libidum with vitamin D3 added in an amount to provide 1 μg/d, calculated based on a daily measured consumption of 4.0 g dry weight of diet per mouse. Fresh synthetic diet was provided three times per week. At several times during the study, mice were weighed and blood samples were obtained from the tail vein. At the conclusion of the study, the mice were euthanized, a blood sample was obtained, perfusion was done, and the spinal cords and optic nerves were removed. The spinal cords were flash frozen with liquid nitrogen and stored at −70° C. prior to 1,25-(OH)2D3 extraction. Alternatively, the spinal cords were divided into 6 equal sections, aligned vertically, snap frozen in O.C.T. compound (Sakura Finetek USA, Torrance, Calif.) and stored at −70° C. for histopathology. The blood was clotted, centrifuged, and the decanted serum was frozen at −70° C. prior to analysis.
Individual mice were analyzed and the mean and SD were calculated for each group of mice. Experiments were repeated at least once. The significance of differences between the group means was determined using the Mann-Whitney test (n≦16), Student's t-test (n>16), or Chi-squared test (binomial data); p<0.05 was considered significant.

[1] = female B10.PL mice, chow-fed, 20 ng pulse dose, 14 days post treatment
[2] = female B10.PL mice, chow-fed, 200 ng injected once each week, 21 days
[3] = female B10.PL mice, chow-fed, 200 ng injected once, 21 days post treatment
[4] = female B10.PL mice, chow-fed, 200 ng pulse dose, 14 days post treatment
[5] = female B10.PL mice, chow-fed, 400 ng pulse dose, 14 days post treatment
[6] = female and male B10.PL mice, chow-fed, 0.5 (female) or 1.0 (male) nmol injected once, 14 days post treatment
[7] = male B10.PL mice, chow-fed, 20 ng pulse dose, 14 days post treatment
[8] = male B10.PL mice, chow-fed, 40 ng pulse dose, 14 days post treatment
[9] = male B10.PL mice, chow-fed, 200 ng pulse dose, 14 days post treatment
[10] = male B10.PL mice, chow-fed, 400 ng pulse dose, 14 days post treatment
[11] = male and female B10.PL mice, 200 ng 1,25-(OH)2D3 injected, 5 μg vitamin D3 gavage 24 hr later, diet 1 μg/d vitamin D3
[12] = methyl-prednisolone 200 μg/d followed by one 1,25-(OH)2D3 treatment, 28-day observation period

## C=C1/C(=C\C=C2/CCC[C@]3(C)[C@@H]([C@H](C)CCCC(C)(C)O)CC[C@@H]23)C[C@@H](O)C[C@@H]1O [1,25-(OH)2D3, 1,25-dihydroxy vitamin D3]
0.5 nmol (females) or 1.0 nmol (males), compared with methyl-prednisolone
  relative potency for the treatment of acute EAE disability: far superior to methyl-prednisolone
200 ng 1,25-(OH)2D3 pulse dose plus vitamin D3 (serum 25-(OH)D3 82±27), 42 day observation period
  reduction of cumulative disability: 48%
chow-fed mice with acute EAE, weekly injections of 200 ng
  cumulative disability lower than the placebo group: 43%
[1]
  EAE severity (decrease): 0.5 ± 1.0
  EAE severity (final): 1.6 ± 1.0
  Remission (%): 75%
  Remission (days in): 8.0 ± 6.3 days
  Remission (days to): 2.0 ± 0.0 days
Female B10.PL mice, chow-fed, 20 ng pulse dose
  EAE severity (initial): 2.1 ± 0.1
Female B10.PL mice, chow-fed, 20 ng pulse dose, sum of daily scores for 14 days
  Cumulative disability: 22.1 ± 9.0
[2]
  EAE severity (peak): 2.4 ± 0.4
  Remission: 15.7 ± 3.4 days
  Remission (%): 100%
  Remission (minimum): 1.0 ± 0.0
Female B10.PL mice, chow-fed, 200 ng injected once each week
  EAE severity (initial): 2.3 ± 0.5
Female B10.PL mice, chow-fed, 200 ng injected once each week, sum of daily scores for 21 days
  Cumulative disability: 31.6 ± 5.1
[3]
  EAE severity (peak): 2.7 ± 0.4
  Remission: 13.4 ± 3.9 days
  Remission (minimum): 1.0 ± 0.4
Female B10.PL mice, chow-fed, 200 ng injected once, 21 days post treatment, remission = score ≦1.5 for two or more consecutive days
  Remission (%): 100%
Female B10.PL mice, chow-fed, 200 ng injected once
  EAE severity (initial): 2.6 ± 0.4
Female B10.PL mice, chow-fed, 200 ng injected once, sum of daily clinical scores for 21 days
  Cumulative disability: 32.9 ± 9.3
[4]
  EAE severity (decrease): 1.6 ± 0.4
  EAE severity (final): 1.0 ± 0.4
  Remission (%): 100%
  Remission (days in): 9.2 ± 2.5 days
  Remission (days to): 5.8 ± 2.5 days
Female B10.PL mice, chow-fed, 200 ng pulse dose
  EAE severity (initial): 2.6 ± 0.4
Female B10.PL mice, chow-fed, 200 ng pulse dose, sum of daily scores for 14 days
  Cumulative disability: 21.8 ± 4.6
[5]
  EAE severity (decrease): 1.2 ± 0.2
  EAE severity (final): 1.0 ± 0.0
  Remission (%): 100%
  Remission (days in): 9.6 ± 3.0 days
  Remission (days to): 6.2 ± 3.3 days
Female B10.PL mice, chow-fed, 400 ng pulse dose
  EAE severity (initial): 2.2 ± 0.2
Female B10.PL mice, chow-fed, 400 ng pulse dose, sum of daily scores for 14 days
  Cumulative disability: 20.6 ± 5.2
[6]
  Cumulative disability: 19.7 ± 4.4
  EAE severity (decrease): 1.2 ± 0.6
  Remission (%): 92%
  Remission (days in): 10.0 ± 2.2 days
  Remission (days to): 4.9 ± 2.2 days
Female and male B10.PL mice, chow-fed, 0.5 (female) or 1.0 (male) nmol of steroid compound injected once
  EAE severity (initial): 2.3 ± 0.4
Female mice, chow-fed, 20 ng pulse dose
  effectiveness for the treatment of EAE: partially effective
Female mice, chow-fed, 200 ng pulse dose
  remission lasted an average of, before a relapse occurred: 14 days
Female mice, chow-fed, 200 ng pulse dose, within 6 days
  mice that achieved a remission (EAE≦1.5 for at least two consecutive days): 100%
[7]
  EAE severity (decrease): 0.7 ± 0.4
  EAE severity (final): 1.4 ± 0.5
  Remission (%): 80%
  Remission (days in): 6.6 ± 4.6 days
  Remission (days to): 6.3 ± 2.2 days
Male B10.PL mice, chow-fed, 20 ng pulse dose
  EAE severity (initial): 2.1 ± 0.2
Male B10.PL mice, chow-fed, 20 ng pulse dose, sum of daily scores for 14 days
  Cumulative disability: 24.2 ± 6.2
[8]
  EAE severity (decrease): 0.5 ± 1.2
  EAE severity (final): 1.7 ± 1.0
  Remission (%): 80%
  Remission (days in): 8.0 ± 4.6 days
  Remission (days to): 4.5 ± 1.7 days
Male B10.PL mice, chow-fed, 40 ng pulse dose
  EAE severity (initial): 2.2 ± 0.4
Male B10.PL mice, chow-fed, 40 ng pulse dose, sum of daily scores for 14 days
  Cumulative disability: 25.0 ± 9.0
[9]
  EAE severity (decrease): 1.0 ± 0.4
  EAE severity (final): 1.3 ± 0.4
  Remission (%): 100%
  Remission (days in): 11.9 ± 2.0 days
  Remission (days to): 6.3 ± 2.4 days
Male B10.PL mice, chow-fed, 200 ng pulse dose
  EAE severity (initial): 2.3 ± 0.3
Male B10.PL mice, chow-fed, 200 ng pulse dose, sum of daily scores for 14 days
  Cumulative disability: 22.1 ± 3.5
[10]
  EAE severity (decrease): 1.2 ± 0.2
  EAE severity (final): 0.8 ± 0.3
  Remission (%): 86%
  Remission (days in): 11.0 ± 1.4 days
  Remission (days to): 4.2 ± 1.7 days
Male B10.PL mice, chow-fed, 400 ng pulse dose
  EAE severity (initial): 2.1 ± 0.4
Male B10.PL mice, chow-fed, 400 ng pulse dose, sum of daily scores for 14 days
  Cumulative disability: 16.9 ± 2.5
[11]
  Remission: 36 ± 6 days
  Remission (%): 100* %
  mortality: 0%
Male and female B10.PL mice, 200 ng 1,25-(OH)2D3 injected, 5 μg vitamin D3 gavage, diet 1 μg/d vitamin D3, sum of daily scores for first 42 days post treatment
  Cumulative disability: 50 ± 14
[12]
  Cumulative disability: 36±10
  reduction of cumulative disability vs placebo group: 42%
Mice with normal serum 25-(OH)D3 levels, 200 ng pulse dose in females and 400 ng pulse dose in males
  amelioration of EAE disease: optimally ameliorated EAE disease
One 1,25-(OH)2D3 treatment (females 200 ng; males 400 ng) after withdrawal of 200 μg/d methyl-prednisolone, 28-day observation period
  mice that did not relapse: 4 of 6
One 1,25-(OH)2D3 treatment (females 200 ng; males 400 ng) after withdrawal of methyl-prednisolone
  days in remission before relapse (remaining two mice): 14 days and 23 days
